Converted amounts (≈) assume the structure as drawn.
Key:
Test in all cases: Liquid broth MIC in Fastidious broth
[1] = test system: N. gonorrhoeae ATCC 49226; details: Neisseria gonorrhoeae, ATCC49226, read-out: Minimum Inhibitory Concentration, ATCC 49226
N. gonorrhoeae WHO L = details: Neisseria gonorrhoeae, read-out: Minimum Inhibitory Concentration, WHO L
N. gonorrhoeae WHO K = details: Neisseria gonorrhoeae, read-out: Minimum Inhibitory Concentration, WHO K
N. gonorrhoeae WHO Z = details: Neisseria gonorrhoeae, read-out: Minimum Inhibitory Concentration, WHO Z

| SMILES | MIC [1] [µg/mL] | MIC (N. gonorrhoeae WHO L) [µg/mL] | MIC (N. gonorrhoeae WHO K) [µg/mL] | MIC (N. gonorrhoeae WHO Z) [µg/mL] |
| --- | --- | --- | --- | --- |
| O=C(NCCS(=O)(=O)N1CCN(C(=O)N[C@H](C(=O)N[C@H]2Cc3ccc(F)c(C(=O)O)c3OB2O)c2cc(F)c(O)c(O)c2Cl)C1=O)c1ccc(O)cc1 [Example 286, (R)-3-((S)-2-(2-chloro-5-fluoro-3,4-dihydroxyphenyl)-2-(3-((2-(4-hydroxybenzamido)ethyl)sulfonyl)-2-oxoimidazolidine-1-carboxamido)acetamido)-7-fluoro-2-hydroxy-3,4-dihydro-2H-benzo[e][1,2]oxaborinine-8-carboxylic acid] | > 64 | > 64 | > 64 | > 64 |
| O=C(NCCS(=O)(=O)N1CCN(C(=O)N[C@@H](C(=O)N[C@H]2Cc3ccc(F)c(C(=O)O)c3OB2O)c2cc(F)c(O)c(O)c2Cl)C1=O)c1ccc(O)cc1 [Example 287, (R)-3-((R)-2-(2-chloro-5-fluoro-3,4-dihydroxyphenyl)-2-(3-((2-(4-hydroxybenzamido)ethyl)sulfonyl)-2-oxoimidazolidine-1-carboxamido)acetamido)-7-fluoro-2-hydroxy-3,4-dihydro-2H-benzo[e][1,2]oxaborinine-8-carboxylic acid] | 4 to 8 (≈ 5.12 to 10.2 µM) | > 64 | 16 to 32 (≈ 20.5 to 40.9 µM) | 4 to 8 (≈ 5.12 to 10.2 µM) |
| O=C(NCCS(=O)(=O)N1CCN(C(=O)NC(C(=O)N[C@H]2Cc3ccc(F)c(C(=O)O)c3OB2O)c2cc(F)c(O)c(O)c2Cl)C1=O)c1ccncc1 (stereo partly drawn) [Example 288, (3R)-3-(2-(2-chloro-5-fluoro-3,4-dihydroxyphenyl)-2-(3-((2-(isonicotinamido)ethyl)sulfonyl)-2-oxoimidazolidine-1-carboxamido)acetamido)-7-fluoro-2-hydroxy-3,4-dihydro-2H-benzo[e][1,2]oxaborinine-8-carboxylic acid] | 16 to 32 (≈ 20.9 to 41.7 µM) | > 64 | 16 to 32 (≈ 20.9 to 41.7 µM) | 4 to 8 (≈ 5.22 to 10.4 µM) |
| O=C(NCCS(=O)(=O)N1CCN(C(=O)NC(C(=O)N[C@H]2Cc3ccc(F)c(C(=O)O)c3OB2O)c2cc(F)c(O)c(O)c2Cl)C1=O)Nc1ccc(O)cc1 (stereo partly drawn) [Example 289, (3R)-3-(2-(2-chloro-5-fluoro-3,4-dihydroxyphenyl)-2-(3-((2-(3-(4-hydroxyphenyl)ureido)ethyl)sulfonyl)-2-oxoimidazolidine-1-carboxamido)acetamido)-7-fluoro-2-hydroxy-3,4-dihydro-2H-benzo[e][1,2]oxaborinine-8-carboxylic acid] | 16 to 32 (≈ 20.1 to 40.2 µM) | > 64 | 16 to 32 (≈ 20.1 to 40.2 µM) | 4 to 8 (≈ 5.02 to 10 µM) |
| O=C(NCCS(=O)(=O)N1CCN(C(=O)N[C@@H](C(=O)N[C@H]2Cc3ccc(F)c(C(=O)O)c3OB2O)c2cc(F)c(O)c(O)c2Cl)C1=O)Nc1ccncc1 [Example 290, (R)-3-((R)-2-(2-chloro-5-fluoro-3,4-dihydroxyphenyl)-2-(2-oxo-3-((2-(3-(pyridin-4-yl)ureido)ethyl)sulfonyl)imidazolidine-1-carboxamido)acetamido)-7-fluoro-2-hydroxy-3,4-dihydro-2H-benzo[e][1,2]oxaborinine-8-carboxylic acid] | 16 to 32 (≈ 20.5 to 40.9 µM) | > 64 | > 64 | 4 to 8 (≈ 5.12 to 10.2 µM) |
| O=C(NCCCS(=O)(=O)N1CCN(C(=O)NC(C(=O)N[C@H]2Cc3ccc(F)c(C(=O)O)c3OB2O)c2cc(F)c(O)c(O)c2Cl)C1=O)Nc1ccncc1 (stereo partly drawn) [Example 291, (3R)-3-(2-(2-chloro-5-fluoro-3,4-dihydroxyphenyl)-2-(2-oxo-3-((3-(3-(pyridin-4-yl)ureido)propyl)sulfonyl)imidazolidine-1-carboxamido)acetamido)-7-fluoro-2-hydroxy-3,4-dihydro-2H-benzo[e][1,2]oxaborinine-8-carboxylic acid] | 16 to 32 (≈ 20.1 to 40.2 µM) | > 64 | > 64 | 4 to 8 (≈ 5.03 to 10.1 µM) |
| O=C(O)c1c(F)ccc2c1OB(O)[C@@H](NC(=O)C(NC(=O)N1CCN(Cc3ccc(O)c(O)c3Cl)C(=O)C1=O)c1cc(F)c(O)c(O)c1Cl)C2 (stereo partly drawn) [Example 292, (3R)-3-(2-(4-(2-chloro-3,4-dihydroxybenzyl)-2,3-dioxopiperazine-1-carboxamido)-2-(2-chloro-5-fluoro-3,4-dihydroxyphenyl)acetamido)-7-fluoro-2-hydroxy-3,4-dihydro-2H-benzo[e][1,2]oxaborinine-8-carboxylic acid] | > 64 | > 64 | > 64 | > 64 |
| O=C(O)c1c(F)ccc2c1OB(O)[C@@H](NC(=O)C(NC(=O)N1CCN(C3CCN(C(=O)c4cccc(O)c4)CC3)C(=O)C1=O)c1cc(F)c(O)c(O)c1Cl)C2 (stereo partly drawn) [Example 293, (3R)-3-(2-(2-chloro-5-fluoro-3,4-dihydroxyphenyl)-2-(4-(1-(3-hydroxybenzoyl)piperidin-4-yl)-2,3-dioxopiperazine-1-carboxamido)acetamido)-7-fluoro-2-hydroxy-3,4-dihydro-2H-benzo[e][1,2]oxaborinine-8-carboxylic acid] | 16 to 32 (≈ 20.4 to 40.7 µM) | > 64 | > 64 | > 64 |
| O=C(NCCCN1CCN(C(=O)N[C@@H](C(=O)N[C@H]2Cc3ccc(F)c(C(=O)O)c3OB2O)c2cc(F)c(O)c(O)c2Cl)C(=O)C1=O)c1ccncc1 [Example 294, (R)-3-((R)-2-(2-chloro-5-fluoro-3,4-dihydroxyphenyl)-2-(4-(3-(isonicotinamido)propyl)-2,3-dioxopiperazine-1-carboxamido)acetamido)-7-fluoro-2-hydroxy-3,4-dihydro-2H-benzo[e][1,2]oxaborinine-8-carboxylic acid] | 16 to 32 (≈ 21.5 to 43 µM) | > 64 | > 64 | 16 to 32 (≈ 21.5 to 43 µM) |
| O=C(NCCCN1CCN(C(=O)NC(C(=O)N[C@H]2Cc3ccc(F)c(C(=O)O)c3OB2O)c2cc(F)c(O)c(O)c2Cl)C(=O)C1=O)c1ccncc1Cl (stereo partly drawn) [Example 295, (3R)-3-(2-(2-chloro-5-fluoro-3,4-dihydroxyphenyl)-2-(4-(3-(3-chloroisonicotinamido)propyl)-2,3-dioxopiperazine-1-carboxamido)acetamido)-7-fluoro-2-hydroxy-3,4-dihydro-2H-benzo[e][1,2]oxaborinine-8-carboxylic acid] | 16 to 32 (≈ 20.5 to 41.1 µM) | > 64 | > 64 | > 64 |
| O=C(NCCCN1CCN(C(=O)N[C@@H](C(=O)N[C@H]2Cc3ccc(F)c(C(=O)O)c3OB2O)c2cc(F)c(O)c(O)c2Cl)C(=O)C1=O)c1ccncc1O [Example 296, (R)-3-((R)-2-(2-chloro-5-fluoro-3,4-dihydroxyphenyl)-2-(4-(3-(3-hydroxyisonicotinamido)propyl)-2,3-dioxopiperazine-1-carboxamido)acetamido)-7-fluoro-2-hydroxy-3,4-dihydro-2H-benzo[e][1,2]oxaborinine-8-carboxylic acid] | 16 to 32 (≈ 21 to 42.1 µM) | > 64 | > 64 | > 64 |
| Cc1cnccc1C(=O)NCCCN1CCN(C(=O)NC(C(=O)N[C@H]2Cc3ccc(F)c(C(=O)O)c3OB2O)c2cc(F)c(O)c(O)c2Cl)C(=O)C1=O (stereo partly drawn) [Example 297, (3R)-3-(2-(2-chloro-5-fluoro-3,4-dihydroxyphenyl)-2-(4-(3-(3-methylisonicotinamido)propyl)-2,3-dioxopiperazine-1-carboxamido)acetamido)-7-fluoro-2-hydroxy-3,4-dihydro-2H-benzo[e][1,2]oxaborinine-8-carboxylic acid] | 16 to 32 (≈ 21.1 to 42.2 µM) | > 64 | > 64 | > 64 |
| Cc1cc(C(=O)NCCCN2CCN(C(=O)N[C@@H](C(=O)N[C@H]3Cc4ccc(F)c(C(=O)O)c4OB3O)c3cc(F)c(O)c(O)c3Cl)C(=O)C2=O)ccn1 [Example 298, (R)-3-((R)-2-(2-chloro-5-fluoro-3,4-dihydroxyphenyl)-2-(4-(3-(2-methylisonicotinamido)propyl)-2,3-dioxopiperazine-1-carboxamido)acetamido)-7-fluoro-2-hydroxy-3,4-dihydro-2H-benzo[e][1,2]oxaborinine-8-carboxylic acid] | 16 to 32 (≈ 21.1 to 42.2 µM) | > 64 | > 64 | > 64 |
| O=C(NCCCN1CCN(C(=O)N[C@H](C(=O)N[C@H]2Cc3ccc(F)c(C(=O)O)c3OB2O)c2cc(F)c(O)c(O)c2Cl)C(=O)C1=O)c1ccnc(F)c1F [Example 299, (R)-3-((S)-2-(2-chloro-5-fluoro-3,4-dihydroxyphenyl)-2-(4-(3-(2,3-difluoroisonicotinamido)propyl)-2,3-dioxopiperazine-1-carboxamido)acetamido)-7-fluoro-2-hydroxy-3,4-dihydro-2H-benzo[e][1,2]oxaborinine-8-carboxylic acid] | > 64 | > 64 | > 64 | > 64 |
| O=C(NCCCN1CCN(C(=O)N[C@@H](C(=O)N[C@H]2Cc3ccc(F)c(C(=O)O)c3OB2O)c2cc(F)c(O)c(O)c2Cl)C(=O)C1=O)c1ccnc(F)c1F [Example 300, (R)-3-((R)-2-(2-chloro-5-fluoro-3,4-dihydroxyphenyl)-2-(4-(3-(2,3-difluoroisonicotinamido)propyl)-2,3-dioxopiperazine-1-carboxamido)acetamido)-7-fluoro-2-hydroxy-3,4-dihydro-2H-benzo[e][1,2]oxaborinine-8-carboxylic acid] | 16 to 32 (≈ 20.5 to 41 µM) | > 64 | > 64 | > 64 |
| Cc1cc(C(=O)NCCCN2CCN(C(=O)NC(C(=O)N[C@H]3Cc4ccc(F)c(C(=O)O)c4OB3O)c3cc(F)c(O)c(O)c3Cl)C(=O)C2=O)c(F)cn1 (stereo partly drawn) [Example 301, (3R)-3-(2-(2-chloro-5-fluoro-3,4-dihydroxyphenyl)-2-(4-(3-(5-fluoro-2-methylisonicotinamido)propyl)-2,3-dioxopiperazine-1-carboxamido)acetamido)-7-fluoro-2-hydroxy-3,4-dihydro-2H-benzo[e][1,2]oxaborinine-8-carboxylic acid] | 16 to 32 (≈ 20.6 to 41.2 µM) | > 64 | > 64 | > 64 |

Source: US20240270762A1, “PENICILLIN-BINDING PROTEIN INHIBITORS” (priority 2021, published 2024)
